From ChEMBL document CHEMBL3880428, “Sulfonamide derivative having PGD2 receptor antagonistic activity” (2012)

Key:
Assay type in all cases: cell-based
HEK293 [1] = experiment: Selectivity ratio of IC50 for PGD2 receptor in human platelets to IC50 for human EP1 receptor expressed in HEK293 cells by cAMP accumulation assay
HEK293 [2] = experiment: Selectivity ratio of IC50 for PGD2 receptor in human platelets to IC50 for human TP receptor expressed in HEK293 cells by cAMP accumulation assay
HEK293 [3] = experiment: Selectivity ratio of IC50 for PGD2 receptor in human platelets to IC50 for human FP receptor expressed in HEK293 cells by cAMP accumulation assay
HEK293 [4] = experiment: Selectivity ratio of IC50 for PGD2 receptor in human platelets to IC50 for human IP receptor expressed in HEK293 cells by cAMP accumulation assay
HEK293 [5] = experiment: Selectivity ratio of IC50 for PGD2 receptor in human platelets to IC50 for human EP4 receptor expressed in HEK293 cells by cAMP accumulation assay
HEK293 [6] = experiment: Selectivity ratio of IC50 for PGD2 receptor in human platelets to IC50 for human EP3 receptor expressed in HEK293 cells by cAMP accumulation assay
HEK293 [7] = experiment: Selectivity ratio of IC50 for PGD2 receptor in human platelets to IC50 for human EP2 receptor expressed in HEK293 cells by cAMP accumulation assay

Measured: Ratio IC50

CC(C)Oc1ccc(S(=O)(=O)N2CCN(c3ccc(-c4nnco4)c(OCC(=O)O)c3)CC2)cc1
> 20: all assays above

CC(C)Oc1ccc(S(=O)(=O)N2CCN(c3ccc(C(=O)NC4CC4)c(OCC(=O)O)c3)CC2)cc1
> 20: all assays above

CC(C)Oc1ccc(S(=O)(=O)N2CCN(c3ccc(C(=O)Nc4ccn(C)n4)c(OCC(=O)O)c3)CC2)cc1
> 20: all assays above

Cc1nnc(-c2ccc(N3CCN(S(=O)(=O)c4ccc(OC(C)C)cc4)CC3)cc2OCC(=O)O)s1
> 20: all assays above

CC(C)Oc1ccc(S(=O)(=O)N2CCN(c3ccc(Cl)c(OCC(=O)O)c3)CC2C)cc1 (stereo unspecified)
> 20: all assays above

CC(C)Oc1ccc(S(=O)(=O)N2CCN(c3ccc(NC(=O)c4cccnc4)c(OCC(=O)O)c3)CC2)cc1
> 20: all assays above

CC(C)Oc1ccc(S(=O)(=O)N2CCN(c3ccc(NC(=O)c4ccccn4)c(OCC(=O)O)c3)CC2)cc1
> 20: all assays above

CC(C)Oc1ccc(S(=O)(=O)N2CCN(c3cc(OCC(=O)O)ccc3Cl)CC2)cc1
> 20: all assays above

CC(C)Oc1ccc(S(=O)(=O)N2CCN(c3cc(Cl)cc(OCC(=O)O)c3)CC2)cc1
> 20: all assays above

CC(C)Oc1ccc(S(=O)(=O)N2CCN(c3ccc(NC(=O)c4ccco4)c(OCC(=O)O)c3)CC2)cc1
> 20: all assays above

CC(C)Oc1ccc(S(=O)(=O)N2CCN(c3ccc(C(=O)NCc4ccco4)c(OCC(=O)O)c3)CC2)cc1
> 20: all assays above

CC(C)Oc1ccc(S(=O)(=O)N2CCN(c3ccc4ncn(CC(=O)O)c4c3)CC2)cc1
> 20: all assays above

CC(C)Oc1ccc(S(=O)(=O)N2CCN(c3cc(OCC(=O)O)cc(C(F)(F)F)c3)CC2)cc1
> 20: all assays above

CC(C)Oc1ccc(S(=O)(=O)N2CCN(c3ccc(-c4nncs4)c(OCC(=O)O)c3)CC2)cc1
> 20: all assays above

Cc1cnc(-c2ccc(N3CCN(S(=O)(=O)c4ccc(OC(C)C)cc4)CC3)cc2OCC(=O)O)o1
> 20: all assays above

CC(C)Oc1ccc(S(=O)(=O)N2CCN(c3ccc(-c4cocn4)c(OCC(=O)O)c3)CC2)cc1
> 20: all assays above

CNC(=O)c1ccc(N2CCN(S(=O)(=O)c3ccc(OC(C)C)cc3)CC2)cc1OCC(=O)O
> 20: all assays above

CC(C)Oc1ccc(S(=O)(=O)N2CCC(Oc3ccc(Cl)cc3CCC(=O)O)CC2)cc1
> 20: all assays above

CC(C)Oc1ccc(S(=O)(=O)N2CCN(c3ccc(C(=O)Nc4nccs4)c(OCC(=O)O)c3)CC2)cc1
> 20: all assays above

CC(C)Oc1ccc(S(=O)(=O)N2CCN(c3ccc(-n4cccn4)c(OCC(=O)O)c3)CC2)cc1
> 20: all assays above

CC(C)Oc1ccc(S(=O)(=O)N2CCC(Oc3ccccc3CCC(=O)O)CC2)cc1
> 20: all assays above

CC[C@@H](C)Oc1ccc(S(=O)(=O)N2CCN(c3ccc(Cl)c(OCC(=O)O)c3)CC2)cc1
> 20: all assays above

CC(C)Oc1ccc(S(=O)(=O)N2CCN(c3ccc(Br)c(OCC(=O)O)n3)CC2)cc1
> 20: all assays above

CC(C)Oc1ccc(S(=O)(=O)N2CCN(c3ccc(Oc4ccccc4)c(OCC(=O)O)c3)CC2)cc1
> 20: all assays above

CC(C)Oc1ccc(S(=O)(=O)N2CCN(c3cc(F)c(F)c(OCC(=O)O)c3)CC2)cc1
> 20: all assays above

CC(C)Oc1ccc(S(=O)(=O)N2CCN(c3ccc(-c4nccs4)c(OCC(=O)O)c3)CC2)cc1
> 20: all assays above

CC(C)OC(=O)Nc1ccc(N2CCN(S(=O)(=O)c3ccc(OC(C)C)cc3)CC2)cc1OCC(=O)O
> 20: all assays above

CC(C)Oc1ccc(S(=O)(=O)N2CCN(c3ccc(C(=O)NCc4ccccn4)c(OCC(=O)O)c3)CC2)cc1
> 20: all assays above

CC(C)Oc1ccc(S(=O)(=O)N2CCN(c3ccc(Cl)c(CC(=O)O)c3)CC2)cc1
> 20: all assays above

CC(C)Oc1ccc(S(=O)(=O)N2CCN(c3ccc(C(=O)Nc4cc(C5CC5)n[nH]4)c(OCC(=O)O)c3)CC2)cc1
> 20: all assays above

CC(C)Oc1ccc(S(=O)(=O)N2CCN(c3cc(F)c(F)c(OCC(=O)O)c3)CC2)cn1
> 20: all assays above

CC(C)Oc1ccc(S(=O)(=O)N2CCN(c3ccc(C(=O)NCc4cccs4)c(OCC(=O)O)c3)CC2)cc1
> 20: all assays above

CC(C)Oc1ccc(S(=O)(=O)N2CCN(c3ccc(C(=O)NCC4CC4)c(OCC(=O)O)c3)CC2)cc1
> 20: all assays above
